Test results reported in patent US11596632B2, “JAK1 pathway inhibitors for the treatment of gastrointestinal disease” (Incyte Corporation, priority 2018, dated 2023).
“Also recorded” adds a separate entry of the source.

Columns and labels:
[1] = Quantitative autoradioluminography (QARL) of colon sections; assay type: in vitro ADME, human; settings: ex vivo, 100 and 1000 nM apical, 1 h
Procedure: Intestinal tissue permeation studies were performed using a vertical Ussing diffusion chamber system (Harvard Apparatus, Holliston, Mass.) for healthy tissues. Frozen tissues were thawed to ambient temperature and rinsed with pre-warmed KRB buffer used for dose formulation before being gently placed on the apparatus. Permeation was carried out mucosal-to-serosal at 37° C. for 1 hour with test article in KRB buffer added to the mucosal side. The receiver side of Ussing chamber containing blank KRB buffer was stirred with air bubbles by an aerator. Due to the limited availability of the samples, UC tissues were mounted (mucosal side up) on one end of a polypropylene tube with both ends cut open, and serosal side placed on blank KRB buffer in a vial with a stirring bar. KRB containing the test article was added into the tube and thus the mucosal side of the tissue was exposed to test article during the incubation. After 1 hour incubation at 37° C., samples (100-500 μL) were taken from both donor and receiver side, and then transferred to a 1.5 mL tube for evaluating the permeation. […]
All response curves determined for image analysis calibration were generated using a weighted 1st degree, polynomial, linear equation (1/MDC/mm^2). […]
The LLOQ was determined as 3 times the mean background for each panel. […]

[2] = tested on: IL-10 knockout mouse model of spontaneous colitis; assay: IL-10 knockout mouse model of spontaneous colitis; assay type: in vivo
Text: The interleukin-10 (IL-10) knockout (KO) mouse model mirrors the multifactorial nature of inflammatory bowel disease (IBD), such as ulcerative colitis and Crohn's disease, as IL-10 KO mice, BALB/cAnNTac-1110^em7Tac, spontaneously develop colitis. Colitis in IL-10 KO mice results from an aberrant response of CD4^+ T helper 1-like T cells and an excessive secretion of the proinflammatory cytokines that signal through the Janus kinase/signal transducers and activators of transcription (JAK/STAT) pathway. Compound 1 is a potent JAK1 inhibitor with 22 to >500-fold selectivity for JAK2, JAK3 and TYK2, and is currently being investigated as a monotherapy in a clinical trial for moderate-to-severe ulcerative colitis.
Female IL-10 homozygote knockout mice on the BALB/c strain background were provided by Taconic (USA). From 6 weeks of age onwards, Compound 1 and vehicle (10 mL/kg) were administered by oral gavage twice daily. Diarrhea was quantified on a 0-3 rating scale, (0=normal; 1=soft but still formed; 2=very soft; 3=diarrhea). Mice were euthanized by CO2 asphyxiation and colon length and weight measured. Tissue pathology was scored on a scale of 0 to 10 based on the following criteria: Lymphocytic infiltrate in the mucosa and the gut associated lymphoid tissue located in the lamina propria/submucosa, mucosal erosions/ulcerations, and transmural inflammation. Body weight, stool consistency, fecal occult blood and rectal bleeding were scored. The incidence of rectal prolapse was recorded.

[3] = 30 mg/kg oral twice daily, vs vehicle

N#CCC1(n2cc(-c3ncnc4[nH]ccc34)cn2)CN(C2CCN(C(=O)c3ccnc(C(F)(F)F)c3F)CC2)C1 [Compound 1, {1-{1-[3-Fluoro-2-(trifluoromethyl)isonicotinoyl]piperidin-4-yl}-3-[4-(7H-pyrrolo[2,3-d]pyrimidin-4-yl)-1H-pyrazol-1-yl]azetidin-3-yl}acetonitrile]
penetration into colon tissue layers [1]: penetrated into the mucosal layer and, to a lesser extent, submucosal layer in a concentration dependent manner
colitis / disease onset ([2]; 30 mg/kg oral twice daily): inhibited disease onset; also recorded: significantly (p<0.001) delayed colitis onset
disease-associated weight loss ([2]; 30 mg/kg oral twice daily): modulated disease-associated weight loss
colon structural pathology [2, 3]: significant (p<0.01) reduction in colon structural pathology
cumulative clinical disease score (symptoms) [2, 3]: reduces symptoms; also recorded: significantly (p<0.0001) reduced
incidence of rectal prolapse [2, 3]: significantly (p<0.01) lower
lymphocytic infiltration and transmural inflammation [2, 3]: significantly (p<0.01) decreased
gene expression in the colon ([2]; oral, vs vehicle): differential gene expression profiles in the colon
colon morphology ([2]; systemic (oral) delivery): significant protective effects on colon morphology
